In patent US9650340B2, “5-fluoro-N-(pyridin-2-yl)pyridin-2-amine derivatives containing a sulfoximine group” (BAYER PHARMA AKTIENGESELLSCHAFT, priority 2012, dated 2017):

Key:
CDK2/CycE = molecular target: T1, CDK2/CycE (Homo sapiens, UniProt P24941); test: CDK2/CycE kinase assay (TR-FRET, 10 μM ATP); type: biochemical; conditions: Method 2 (2a)
T1 construct: GST; purchased ProQinase GmbH (Freiburg, Germany); host or cells: insect cells (Sf9)
Excerpt: 2a. CDK2/CycE Kinase Assay:
CDK2/CycE-inhibitory activity of compounds of the present invention was quantified employing the CDK2/CycE TR-FRET assay as described in the following paragraphs:
Recombinant fusion proteins of GST and human CDK2 and of GST and human CycE, expressed in insect cells (Sf9) and purified by Glutathion-Sepharose affinity chromatography, were purchased from ProQinase GmbH (Freiburg, Germany). As substrate for the kinase reaction biotinylated peptide biotin-Ttds-[…] (C-terminus in amid form) was used which can be purchased e.g. form the company JERINI Peptide Technologies (Berlin, Germany).
For the assay 50 nl of a 100 fold concentrated solution of the test compound in DMSO was pipetted into a black low volume 384 well microtiter plate (Greiner Bio-One, Frickenhausen, Germany), 2 μl of a solution of CDK2/CycE in aqueous assay buffer [50 mM Tris/HCl pH 8.0, 10 mM MgCl2, 1.0 mM dithiothreitol, 0.1 mM sodium ortho-vanadate, 0.01% (v/v) Nonidet-P40 (Sigma)] were added and the mixture was incubated for 15 min at 22° C. to allow pre-binding of the test compounds to the enzyme before the start of the kinase reaction. Then the kinase reaction was started by the addition of 3 μl of a solution of adenosine-tri-phosphate (ATP, 16.7 μM=>final conc. in the 5 μl assay volume is 10 μM) and substrate (1.25 μM=>final conc. in the 5 μl assay volume is 0.75 μM) in assay buffer and the resulting mixture was incubated for a reaction time of 25 min at 22° C. The concentration of CDK2/CycE was adjusted depending of the activity of the enzyme lot and was chosen appropriate to have the assay in the linear range, typical concentrations were in the range of 130 ng/mL The reaction was stopped by the addition of 5 μl of a solution of TR-FRET detection reagents (0.2 μM streptavidine-XL665 [Cisbio Bioassays, Codolet, France] and 1 nM anti-RB(pSer807/pSer811)-antibody from BD Pharmingen [#558389] and 1.2 nM LANCE EU-W1024 labeled anti-mouse IgG antibody [Perkin-Elmer, product no. AD0077]) in an aqueous EDTA-solution (100 mM EDTA, 0.2% (w/v) bovine serum albumin in 100 mM HEPES/NaOH pH 7.0).
The resulting mixture was incubated 1 h at 22° C. to allow the formation of complex between the phosphorylated biotinylated peptide and the detection reagents. Subsequently the amount of phosphorylated substrate was evaluated by measurement of the resonance energy transfer from the Eu-chelate to the streptavidine-XL. Therefore, the fluorescence emissions at 620 nm and 665 nm after excitation at 350 nm was measured in a TR-FRET reader, e.g. a Rubystar (BMG Labtechnologies, Offenburg, Germany) or a Viewlux (Perkin-Elmer). The ratio of the emissions at 665 nm and at 622 nm was taken as the measure for the amount of phosphorylated substrate.

[1] = system: HeLa, human cervical tumour cells; test: Proliferation assay, HeLa (crystal violet); type: cell-based; conditions: Homo sapiens, 96 h, 4 days, read-out: Inhibition of HeLa cell proliferation IC50
Protocol: (§1) Cultivated tumour cells (HeLa, human cervical tumour cells, ATCC CCL-2; NCI-H460, human non-small cell lung carcinoma cells, ATCC HTB-177; A2780, human ovarian carcinoma cells, ECACC #93112519; DU 145, hormone-independent human prostate carcinoma cells, ATCC HTB-81; HeLa-MaTu-ADR, multidrug-resistant human cervical carcinoma cells, EPO-GmbH Berlin; Caco-2, human colorectal carcinoma cells, ATCC HTB-37; B16F10, mouse melanoma cells, ATCC CRL-6475) were plated at a density of 5,000 cells/well (DU145, HeLa-MaTu-ADR), 3,000 cells/well (NCI-H460, HeLa), 2,500 cells/well (A2780), 1,500 cells/well (Caco-2), or 1,000 cells/well (B16F10) in a 96-well multititer plate in 200 μL of their respective growth medium supplemented 10% fetal calf serum. After 24 hours, the cells of one plate (zero-point plate) were stained with crystal violet (see below), while the medium of the other plates was replaced by fresh culture medium (200 μl), to which the test substances were added in various concentrations (0 μM, as well as in the range of 0.001-10 μM; the final concentration of the solvent dimethyl sulfoxide was 0.5%). The cells were incubated for 4 days in the presence of test substances. Cell proliferation was determined by staining the cells with crystal violet: the cells were fixed by adding 20 μl/measuring point of an 11% glutaric aldehyde solution for 15 minutes at room temperature. After three washing cycles of the fixed cells with water, the plates were dried at room temperature. The cells were stained by adding 100 μl/measuring point of a 0.1% crystal violet solution (pH 3.0). After three washing cycles of the stained cells with water, the plates were dried at room temperature. The dye was dissolved by adding 100 μl/measuring point of a 10% acetic acid solution. The extinction was determined by photometry at a wavelength of 595 nm. The change of cell number, in percent, was calculated by normalization of the measured values to the extinction values of the zero-point plate (=0%) and the extinction of the untreated (0 μm) cells (=100%). The IC50 values (inhibitory concentration at 50% of maximal effect) were determined by means of a 4 parameter fit. Non-adherent MOLM-13 human acute myeloid leukemia cells (DSMZ ACC 554) were seeded at a density of 5,000 cells/well in a 96-well multititer plate in 100 μL of growth medium supplemented 10% fetal calf serum. After 24 hours, cell viability of one plate (zero-point plate) was determined with the Cell Titre-Glo Luminescent Cell Viability Assay (Promega), while 50 μL of test compound containing medium was added to the wells of the other plates (final concentrations in the range of 0.001-10 μM and DMSO controls; the final concentration of the solvent dimethyl sulfoxide was 0.5%). Cell viability was assessed after 72-hour exposure with the Cell Titre-Glo Luminescent Cell Viability Assay (Promega).

[2] = system: B16F10, mouse melanoma cells; test: Proliferation assay, B16F10 (crystal violet); type: cell-based; conditions: Mus musculus, B16-F10, 96 h, B16F10, 4 days; read-out: Inhibition of B16F10 cell proliferation IC50
Protocol: as §1

Row | SMILES | IC50 (CDK2/CycE) [nM] | IC50 [1] [nM] | IC50 [2] [nM]
1 | COc1cc(F)ccc1-c1cc(Nc2cc(CS(C)(=N)=O)ccn2)ncc1F (racemic) [Example 1, (rac)-5-Fluoro-4-(4-fluoro-2-methoxyphenyl)-N-{4-[(S-methylsulfonimidoyl)methyl]pyridin-2-yl}pyridin-2-amine] | 410 | 95 | 110
2 | COc1cc(F)ccc1-c1cc(Nc2cc(CS(C)(=N)=O)cc(C)n2)ncc1F (racemic) [Example 4, (rac)-5-Fluoro-4-(4-fluoro-2-methoxyphenyl)-N-{6-methyl-4-[(S-methylsulfonimidoyl)methyl]pyridin-2-yl}pyridin-2-amine] | 120 | 35 | 100
3 | COc1cc(F)ccc1-c1cc(Nc2cc(CS(C)(=N)=O)c(Br)c(C)n2)ncc1F (racemic) [Example 5, (rac)-5-Bromo-N-[5-fluoro-4-(4-fluoro-2-methoxyphenyl)pyridin-2-yl]-6-methyl-4-[(S-methylsulfonimidoyl)methyl]pyridin-2-amine] | 140 | 93 | 120
4 | COc1cc(F)ccc1-c1cc(Nc2cc(CS(=N)(=O)CCO)ccn2)ncc1F (racemic) [Example 8, (rac)-2-{S-[(2-{[5-Fluoro-4-(4-fluoro-2-methoxyphenyl)pyridin-2-yl]amino}pyridin-4-yl)methyl]sulfonimidoyl}ethanol] | 430 | 140 | 186
5 | COc1cc(F)ccc1-c1cc(Nc2cc(CS(=N)(=O)CCN)ccn2)ncc1F (racemic) [Example 9, (rac)-N-(4-{[S-(2-Aminoethyl)sulfonimidoyl]methyl}pyridin-2-yl)-5-fluoro-4-(4-fluoro-2-methoxyphenyl)pyridin-2-amine] | 240 | 410 | –
6 | CCOC(=O)N=S(C)(=O)Cc1ccnc(Nc2cc(-c3ccc(F)cc3OC)c(F)cn2)c1 (racemic) [Example 11, (rac)-Ethyl{[(2-{[5-fluoro-4-(4-fluoro-2-methoxyphenyl)pyridin-2-yl]amino}pyridin-4-yl)methyl](methyl)oxido-λ^6-sulfanylidene}carbamate] | 170 | 72 | 180
7 | CCNC(=O)N=S(C)(=O)Cc1ccnc(Nc2cc(-c3ccc(F)cc3OC)c(F)cn2)c1 (racemic) [Example 12, (rac)-1-Ethyl-3-{[(2-{[5-fluoro-4-(4-fluoro-2-methoxyphenyl)pyridin-2-yl]amino}pyridin-4-yl)methyl](methyl)oxido-λ^6-sulfanylidene}urea] | 140 | 34 | 130
8 | COc1cc(F)ccc1-c1cc(Nc2cc(CS(C)(=O)=NC(C)=O)ccn2)ncc1F (racemic) [Example 13, (rac)-N-{[(2-{[5-Fluoro-4-(4-fluoro-2-methoxyphenyl)pyridin-2-yl]amino}pyridin-4-yl)methyl](methyl)oxido-λ^6-sulfanylidene}acetamide] | 130 | 100 | 180

Stronger by IC50 (CDK2/CycE), values ahead:

Row | IC50 (CDK2/CycE) [nM] | IC50 [1] [nM] | IC50 [2] [nM] | SMILES
9 | 4 | 21 | 33 | COc1cc(CS(C)(=N)=O)cc(Nc2cc(-c3ccc(F)cc3OC)c(F)cn2)n1 (racemic) [Example 6, (rac)-5-Fluoro-4-(4-fluoro-2-methoxyphenyl)-N-{6-methoxy-4-[(S-methylsulfonimidoyl)methyl]pyridin-2-yl}pyridin-2-amine]
10 | 44 | 32 | 34 | COc1cc(F)ccc1-c1cc(Nc2cc(CS(C)(=N)=O)cc(Cl)n2)ncc1F (racemic) [Example 7, (rac)-N-{6-Chloro-4-[(S-methylsulfonimidoyl)methyl]pyridin-2-yl}-5-fluoro-4-(4-fluoro-2-methoxyphenyl)pyridin-2-amine]
11 | 10 | 40 | 45 | CCOC(=O)N=S(C)(=O)Cc1cc(Nc2cc(-c3ccc(F)cc3OC)c(F)cn2)nc(OC)c1 (racemic) [Example 15, (rac)-ethyl{[(2-{[5-fluoro-4-(4-fluoro-2-methoxyphenyl)pyridin-2-yl]amino}-6-methoxypyridin-4-yl)methyl](methyl)oxido-λ^6-sulfanylidene}carbamate]
12 | 49 | 46 | 67 | COc1cc(F)ccc1-c1cc(Nc2cc(CS(C)(=N)=O)cc(F)n2)ncc1F (racemic) [Example 17, (rac)-5-Fluoro-4-(4-fluoro-2-methoxyphenyl)-N-{6-fluoro-4-[(S-methylsulfonimidoyl)methyl]pyridin-2-yl}pyridin-2-amine]
13 | 39 | 61 | 68 | COc1cc(F)ccc1-c1cc(Nc2cc(CS(C)(=O)=NC(=O)C(F)(F)F)cc(F)n2)ncc1F (racemic) [Example 18, (rac)-2,2,2-Trifluoro-N-{[(2-fluoro-6-{[5-fluoro-4-(4-fluoro-2-methoxyphenyl)pyridin-2-yl]amino}pyridin-4-yl)methyl](methyl)oxido-λ^6-sulfanylidene}acetamide]
14 | 10 | 8 | – | COc1cc(F)ccc1-c1cc(Nc2cc(CS(C)(=N)=O)cc(C(F)F)n2)ncc1F (racemic) [Example 31, (rac)-N-{6-(Difluoromethyl)-4-[(S-methylsulfonimidoyl)methyl]pyridin-2-yl}-5-fluoro-4-(4-fluoro-2-methoxyphenyl)pyridin-2-amine]
15 | 94 | – | 95 | COc1cc(F)ccc1-c1cc(Nc2cc(CS(C)(=N)=O)cc(F)n2)ncc1F (single isomer, unassigned; (+)) [Example 19, (+)-5-Fluoro-4-(4-fluoro-2-methoxyphenyl)-N-{6-fluoro-4-[(S-methylsulfonimidoyl)methyl]pyridin-2-yl}pyridin-2-amine]
